Test results taken from US8815903B2, “Indole derivative and pharmacologically acceptable salt thereof” (Kissei Pharmaceutical Co., Ltd., priority 2011, dated 2014).

Target: T1, rat EP1 receptor (Rattus norvegicus, UniProt P70597)
T1 construct: expressed in transfected cells
T1 sequence (P70597 1-405): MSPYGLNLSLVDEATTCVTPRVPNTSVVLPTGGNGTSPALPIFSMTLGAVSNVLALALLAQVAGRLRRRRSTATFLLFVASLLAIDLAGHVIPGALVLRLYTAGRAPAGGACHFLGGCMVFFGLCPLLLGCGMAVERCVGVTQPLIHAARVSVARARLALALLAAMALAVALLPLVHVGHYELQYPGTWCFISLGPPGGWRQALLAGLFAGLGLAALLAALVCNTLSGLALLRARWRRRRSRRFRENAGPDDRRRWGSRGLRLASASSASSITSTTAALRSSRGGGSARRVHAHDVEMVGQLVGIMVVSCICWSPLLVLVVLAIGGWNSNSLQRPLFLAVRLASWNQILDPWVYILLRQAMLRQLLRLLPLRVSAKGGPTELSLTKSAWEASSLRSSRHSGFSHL
Assay: Test for confirmation of EP1 receptor antagonism (inhibition of PGE2-induced increase in intracellular calcium concentration)
Assay type: cell-based
Conditions: rat EP1 receptor-expressing COS-1 cells; prostaglandin E2 10 nM; fluorescent calcium indicator, FDSS 7000
Description: Test for Confirmation of EP1 Receptor Antagonism
(1) Preparation of Rat EP1 Expression Vector
Using Rat Kidney BD Marathon-Ready cDNA (Nippon Becton Dickinson Company, Ltd.) as a template, a forward primer shown in (SEQ ID NO:1), and a reverse primer shown in (SEQ ID NO:2), a first run of PCR was carried out using KOD-Plus-Ver 2.0 (Toyobo Co., Ltd.). Further, using this amplification product as a template, a forward primer shown in (SEQ ID NO:3), and a reverse primer shown in (SEQ ID NO:4), a second run of PCR was carried out in the same manner. The amplification product obtained by the second run of PCR was incorporated into a vector (pcDNA3.1 D/V5-His-TOPO (registered trademark), Invitrogen Japan K. K.). By a conventional method, the vector containing this amplification product was introduced to E. coli (One Shot TOP 10 Competent Cells, Invitrogen Corporation) to transform. This transformed E. coli was cultured in an LB agar medium for one day. After the culture, colonies were selected and cultured in an LB liquid medium containing 50 μg/mL of ampicillin. After the culture, the vector was purified using a QIAprep Spin Miniprep Kit (Qiagen K. K.). The base sequence of the insertion site of this vector (SEQ ID NO:5) was compared with the rat EP1 base sequence (Ptger1) registered as Accession No. NM_013100 in publicly-known database (NCBI), and as a result, they all matched except for a single base. Further, the amino acid sequence translated by the base sequence completely matched the amino acid sequence of the rat EP1 receptor registered as an NCBI Accession No. NP_037232. Therefore, it was confirmed that the cloned gene sequence was a base sequence of the rat EP1 receptor and the obtained amino acid sequence was that of the rat EP1 receptor. The pcDNA3.1 D/V5-His-TOPO (registered trademark) to which the nucleic acid shown in (SEQ ID NO:5) had been inserted was taken as a rat EP1-expressing vector.
(2) Preparation of Rat EP1 Receptor-Expressing Cells
COS-1 cells (Dainippon Sumitomo Pharma Co., Ltd.) were cultured until they reached confluence in an incubator at 37° C. under a 5% CO2 gas condition, using a D-MEM liquid medium (high glucose and L-glutamine contained, Invitrogen Corporation) to which a penicillin-streptomycin solution (Invitrogen Corporation, final concentration: 100 U/mL as benzylpenicillin; 100 μg/mL as streptomycin) as an antibiotic, MEM nonessential amino acids (Invitrogen Corporation, final concentration: 0.1 mM), and fetal calf serum (Sanko Junyaku Co., Ltd., final concentration: 10%) were added.
The cells that had reached confluence were stripped with 0.05% trypsin/0.53 mM EDTA.4Na, and resuspended in a D-MEM liquid medium (high glucose and L-glutamine contained, Invitrogen Corporation) to which an MEM nonessential amino acid (final concentration: 0.1 mM) and fetal calf serum (final concentration: 10%) were added. In each well of a Poly D-lysine-coated 96-well microplate (BD BioCoat (registered trademark), Nippon Becton Dickinson Company, Ltd.), this resuspended cell suspension culture was prepared to be 5×10^4 cells/well in 100 μL of the liquid medium, and 100 μL of the cell suspension was seeded on each well. After seeding, the cells were cultured in an incubator at 37° C. under a 5% CO2 gas condition. At a point when the cells for introduction of a rat EP1-expressing vector were adhered (about 2 hours after seeding), introduction of the rat EP1-expressing vector was carried out in the following order.
For introduction of the rat EP1-expressing vector, Lipofectamine 2000 (Invitrogen Japan K. K.) was used. The rat EP1-expressing vector was diluted with OPTI-MEM (registered trademark) I Reduced-Serum Medium (Invitrogen Japan K. K.) to 200 ng/25 μL/well, and at the same time, Lipofectamine 2000 (Invitrogen Japan K. K.) was also diluted with OPTI-MEM (registered trademark) I Reduced-Serum Medium (Invitrogen Japan K. K.) to 0.5 μL/25 μL/well, followed by incubation at room temperature for 5 minutes. […]

Row | IC50 | SMILES
1 | 99 nM | COc1ccc2c(Cc3cccc(C(=O)NS(C)(=O)=O)n3)c(-c3ccsc3)[nH]c2c1 [Example 1, N-Methanesulfonyl-6-(6-methoxy-2-thiophen-3-yl-1H-indol-3-ylmethyl)pyridine-2-carboxamide]
2 | 30 nM | COc1ccc2c(Cc3cccc(C(=O)NS(=O)(=O)c4ccccc4)n3)c(-c3ccccc3)[nH]c2c1 [Example 3-3]
3 | 39 nM | CCCS(=O)(=O)NC(=O)c1cccc(Cc2c(-c3ccccc3)[nH]c3cc(OC)ccc23)n1 [Example 3-4]
4 | 55 nM | CCCS(=O)(=O)NC(=O)c1cccc(Cc2c(C(C)(C)C)[nH]c3cc(OC)c(Cl)cc23)n1 [Example 3-5]
5 | 33 nM | CCS(=O)(=O)NC(=O)c1cccc(Cc2c(C(C)(C)C)[nH]c3cc(OC)c(Cl)cc23)n1 [Example 3-7]
6 | 47 nM | COc1ccc2c(Cc3cccc(C(=O)NS(=O)(=O)C4CC4)n3)c(-c3ccccc3)[nH]c2c1 [Example 3-10]
7 | 17 nM | COc1ccc2c(Cc3cccc(C(=O)NS(=O)(=O)c4ccccc4)n3)c(C(C)(C)C)[nH]c2c1 [Example 3-11]
8 | 27 nM | Cc1ccc2c(Cc3cccc(C(=O)NS(C)(=O)=O)n3)c(-c3ccsc3)[nH]c2c1 [Example 3-12]
9 | 27 nM | COc1ccc2c(Cc3cccc(C(=O)NS(=O)(=O)C(C)C)n3)c(-c3ccccc3)[nH]c2c1 [Example 3-13]
10 | 88 nM | COc1ccc2c(Cc3cccc(C(=O)NS(C)(=O)=O)n3)c(-c3ccc(F)cc3)[nH]c2c1 [Example 3-14]
11 | 27 nM | CCS(=O)(=O)NC(=O)c1cccc(Cc2c(-c3ccc(F)cc3)[nH]c3cc(OC)ccc23)n1 [Example 3-15]
12 | 68 nM | COc1ccc2c(Cc3cccc(C(=O)NS(C)(=O)=O)n3)c(-c3csc(C)c3)[nH]c2c1 [Example 3-20]
13 | 86 nM | CCS(=O)(=O)NC(=O)c1cccc(Cc2c(-c3csc(C)c3)[nH]c3cc(OC)ccc23)n1 [Example 3-21]
14 | 58 nM | CCS(=O)(=O)NC(=O)c1cccc(Cc2c(-c3ccoc3)[nH]c3cc(OC)ccc23)n1 [Example 3-23]
15 | 58 nM | CCS(=O)(=O)NC(=O)c1cccc(Cc2c(-c3ccccc3)[nH]c3cc(Cl)ccc23)n1 [Example 3-24]
16 | 78 nM | CS(=O)(=O)NC(=O)c1cccc(Cc2c(-c3ccccc3)[nH]c3cc(Cl)ccc23)n1 [Example 3-25]
17 | 43 nM | Cc1cc2[nH]c(-c3ccccc3)c(Cc3cccc(C(=O)NS(C)(=O)=O)n3)c2cc1C [Example 3-30]
18 | 47 nM | CCS(=O)(=O)NC(=O)c1cccc(Cc2c(-c3ccccc3)[nH]c3cc(C)c(C)cc23)n1 [Example 3-31]
19 | 51 nM | CCS(=O)(=O)NC(=O)c1cccc(Cc2c(-c3ccccc3)[nH]c3cc(OC)c(F)cc23)n1 [Example 3-32]
20 | 66 nM | CCS(=O)(=O)NC(=O)c1cccc(Cc2c(-c3ccccc3)[nH]c3cc(C4CC4)ccc23)n1 [Example 3-33]
21 | 40 nM | CCS(=O)(=O)NC(=O)c1cccc(Cc2c(-c3ccccc3)[nH]c3cc(C)ccc23)n1 [Example 3-34]
22 | 12 nM | COc1ccc2c(Cc3cccc(-c4nnn[nH]4)n3)c(-c3ccsc3)[nH]c2c1 [Example 5-4]
23 | 45 nM | COc1ccc2c(Cc3cccc(-c4nnn[nH]4)c3)c(-c3ccccc3)[nH]c2c1 [Example 5-6]
24 | 12 nM | COc1cc2[nH]c(-c3ccccc3)c(Cc3cccc(-c4nnn[nH]4)n3)c2cc1F [Example 5-8]
25 | 22 nM | COc1ccc2c(Cc3cccc(-c4nnn[nH]4)n3)c(-c3ccc(F)cc3)[nH]c2c1 [Example 5-9]

Row | IC50 | SMILES
26 | 13 nM | COc1ccc2c(Cc3cccc(-c4nnn[nH]4)n3)c(-c3cccnc3)[nH]c2c1 [Example 5-10]
27 | 26 nM | COc1ccc2c(Cc3cccc(-c4nnn[nH]4)n3)c(-c3csc(C)c3)[nH]c2c1 [Example 5-12]
28 | 30 nM | Cc1ccc2c(Cc3cccc(-c4nnn[nH]4)n3)c(-c3ccsc3)[nH]c2c1 [Example 5-13]
29 | 50 nM | COc1ccc2c(Cc3cccc(-c4noc(=S)[nH]4)n3)c(-c3ccccc3)[nH]c2c1 [Example 9, 3-[6-(6-Methoxy-2-phenyl-1H-indol-3-ylmethyl)pyridin-2-yl]-4,5-dihydro-1,2,4-oxadiazole-5-thione]
30 | 23 nM | COc1ccc2c(Cc3cccc(-c4noc(=O)[nH]4)n3)c(-c3ccoc3)[nH]c2c1 [Example 12-1]
31 | 43 nM | COc1ccc2c(Cc3cccc(-c4noc(=O)[nH]4)n3)c(C(C)(C)C)[nH]c2c1 [Example 12-2]
32 | 46 nM | COc1cc2[nH]c(-c3ccccc3)c(Cc3cccc(-c4noc(=O)[nH]4)n3)c2cc1F [Example 12-5]
33 | 40 nM | O=c1[nH]c(-c2cccc(Cc3c(-c4ccccc4)[nH]c4cc(C5CC5)ccc34)n2)no1 [Example 12-6]
34 | 28 nM | Cc1cc2[nH]c(-c3ccccc3)c(Cc3cccc(-c4noc(=O)[nH]4)n3)c2cc1C [Example 12-7]
35 | 34 nM | Cc1ccc2c(Cc3cccc(-c4noc(=O)[nH]4)n3)c(-c3ccsc3)[nH]c2c1 [Example 12-9]
36 | 54 nM | Cc1ccc2c(Cc3cccc(C(=O)NC#N)n3)c(-c3ccccc3)[nH]c2c1 [Example 16-1]
37 | 48 nM | COc1ccc2c(Cc3cccc(C(=O)NC#N)n3)c(C(C)(C)C)[nH]c2c1 [Example 16-2]
38 | 24 nM | COc1cc2[nH]c(-c3ccccc3)c(Cc3cccc(C(=O)NC#N)n3)c2cc1F [Example 16-3]
39 | 46 nM | COc1cc2[nH]c(C(C)(C)C)c(Cc3cccc(C(=O)NC#N)n3)c2cc1Cl [Example 16-5]
40 | 36 nM | Cc1ccc2c(Cc3cccc(C(=O)NC#N)n3)c(-c3ccsc3)[nH]c2c1 [Example 16-6]
41 | 20 nM | Cc1cc2[nH]c(-c3ccccc3)c(Cc3cccc(-c4nnn[nH]4)n3)c2cc1C [Example 17-3]
42 | 27 nM | COc1cc2[nH]c(C(C)C)c(Cc3cccc(-c4nnn[nH]4)n3)c2cc1Cl [Example 17-4]
43 | 23 nM | COc1ccc2c(Cc3cccc(-c4nnn[nH]4)n3)c(C(C)C)[nH]c2c1 [Example 17-5]
44 | 31 nM | COc1ccc2c(Cc3cccc(-c4nnn[nH]4)n3)c(C3CC3)[nH]c2c1 [Example 17-6]
45 | 30 nM | COc1ccc2c(Cc3cccc(-c4nnn[nH]4)n3)c(C3CCCCC3)[nH]c2c1 [Example 17-7]
46 | 7.3 nM | Cc1ccc2c(Cc3cccc(-c4nnn[nH]4)n3)c(-c3ccoc3)[nH]c2c1 [Example 17-8]
47 | 10 nM | c1cc(Cc2c(-c3ccoc3)[nH]c3cc(C4CC4)ccc23)nc(-c2nnn[nH]2)c1 [Example 17-9]
48 | 22 nM | CCC(C)c1[nH]c2cc(OC)ccc2c1Cc1cccc(-c2nnn[nH]2)n1 (stereo not shown) [Example 17-10]
49 | 28 nM | CC1(c2[nH]c3cc(C4CC4)ccc3c2Cc2cccc(-c3nnn[nH]3)n2)CC1 [Example 17-13, 6-cyclopropyl-2-(1-methylcyclopropyl)-3-[6-(1H-tetrazol-5-yl)pyridin-2-ylmethyl]-1H-indole]
